Measurements: patent publication US8119400B2, “Methods of inhibiting smooth muscle cell migration and proliferation” (Beth Isreal Deaconess Medical Center, Inc., priority 2005, dated 2012)
Entries after “also recorded” stand apart in the source; their conditions may differ. No end group written: not given here. *: point of attachment. Myristoyl = CCCCCCCCCCCCCC(=O)*; {P} = phosphate

Key:
[1] = system: VSMCs in human saphenous vein; assay: Proliferation after ex vivo siRNA transfection of whole vein; assay type: cell-based; details: 100 nM, three days after transfection, vs control siRNA
[2] = system: MARCKS mRNA; assay: MARCKS mRNA knockdown after lipofection, HVSMCs (qRT-PCR); assay type: cell-based, human; details: 100 nM, 24 hours after lipofection
Experimental: (§1) MARCKS knockdown was achieved by lipofection of HVSMCs and HECs with MARCKS siRNA. Lipofection was performed using the DharmAFECT1 transfection reagent (Dharmacon) for 24 hours in serum- and antibiotic-free media as per manufacturer's protocol.
(§2) Evaluation of target gene mRNA knockdown after siRNA delivery was analyzed using a Stratagene MX3000P real time PCR (qRT-PCR) machine (Stratagene, La Jolla, Calif.). Total RNA was extracted from plate wells using RNeasy spin columns (Qiagen, Valencia, Calif.) and cDNA was prepared from […] using the iScript cDNA synthesis kit (Bio-Rad, Hercules, Calif.) prior to thermal cycling. For quantitative analysis, target gene levels were normalized to 18s or B2M levels as previously described (Bustin, S A et al. (2004) J. Mol. Endocrinol. 29(1):23-39), and target and housekeeper gene amplification reactions were performed in triplicate for each cDNA sample using 1 μl cDNA per reaction. […]
(§3) Thermal cycling was performed under the following conditions: Stage 1: 10 minutes at 95° C.; Stage 2 (40 cycles): 30 seconds at 95° C., 1 minute at 60° C., 30 seconds at 72° C. The Comparative Quantification software tool was used to compare normalized gene levels from cells transfected with targeting siRNA vs. non-targeting control siRNA (calibrators). […]

[3] = system: MARCKS mRNA; assay: MARCKS mRNA knockdown after lipofection, HECs (qRT-PCR); assay type: cell-based, human; details: 5 nM, 24 hours after lipofection
Experimental: as §1, §2, §3

[4] = system: MARCKS protein; assay: MARCKS protein Western blot, HVSMCs; assay type: cell-based, human; details: 100 nM, 3 days after lipofection
Experimental: as §1
(§4) Cell extracts were recovered from 6-well plates after siRNA lipofection and analyzed by sodium dodecyl sulfate-polyacrylamide gel electrophoresis (SDS-PAGE) and Western blotting with the use of standard techniques. Antibodies used for protein detection were: mouse monoclonal anti-GAPDH (1:10,000 dilution, Ambion), goat polyclonal anti-MARCKS (N-19) IgG (1:100 dilution, Santa Cruz Biotechnology, Santa Cruz, Calif.), mouse monoclonal anti-p27^kip-1 (1:250 dilution, Pharmingen, San Diego, Calif.) and mouse anti-β-tubulin IgM (clone 5H1) (1:250 dilution, Pharmingen, San Diego, Calif.). Secondary antibodies used were peroxidase-conjugated goat anti-mouse IgG (H+L) (1:1,000-1:5,000 dilution, Chemicon International, Temecula, Calif.) and peroxidase-conjugated rabbit anti-goat IgG (H+L) (1:500 dilution, Bio-Rad). Densitometry was performed using Adobe Photoshop 6.0 or NIH Image J 1.34.

[5] = system: MARCKS protein; assay: MARCKS protein Western blot, HECs; assay type: cell-based, human; details: 25 nM, 3 days after lipofection
Experimental: as §1, §4

[6] = system: HVSMCs; assay: Fluoroblok migration assay, HVSMCs; assay type: cell-based, human; details: 100 nM, 3 days after lipofection, 30% FBS
Experimental: The migratory and proliferative abilities of HVSMCs and HECs were assessed after MARCKS knockdown using migration and proliferation assays. Phenotypic analysis of HVSMC migration was performed using the Fluoroblok migration assay (BD Biosciences, San Jose, Calif.) to measure the ability of calcein-AM fluorescently-labeled cells to migrate through a PET membrane with […] towards a chemotactant stimulus of 30% FBS. Briefly, VSMCs were incubated in 10 μM calcein-AM (Invitrogen) for 1 hour, trypsinized, and resuspended in serum-free VSMC media. In this assay, the upper chamber of the Transwell insert is separated from the lower chamber by a fluorescently opaque polyethyleneterephthalate (PET) membrane with 8 μm pores at the base of the insert. Approximately 50,000 VSMCs were loaded in each of the upper wells. The lower wells contained media supplemented with serum-free VSMC media, VSMC media with 30% FBS, or EC-conditioned media to stimulate cell migration. At time 0, the upper chambers were read at an excitation of 485 nm and an emission of 535 nm on a Biotek Fluorometer FLX800 (BioTek Instruments) and returned to the incubator. After 24 hours, the lower chambers were read with the same settings. The proportion of cells migrated were calculated by dividing the fluorescent intensity after 24 hours by the intensity read at time 0. […]

[7] = system: HECs; assay: Fluoroblok migration assay, HECs; assay type: cell-based, human
[8] = system: HVSMCs; assay: alamarBlue proliferation assay, HVSMCs; assay type: cell-based, human
Experimental: Phenotypic analysis of vascular cell proliferation was performed using the alamarBlue assay (Trek Diagnostics, Cleveland, Ohio), as previously described (Voytik-Harbin, SL et al. (1998) In Vitro Cell Dev. Biol. Anim. 34(3):239-246), to quantitate total cellular metabolic activity in the wells of tissue culture plates. Briefly, HVSMCs were plated on 24-well plates at a density of 10,000 cells per well and grown for 24 hours in normal cell media. Afterwards, a Day 0 measurement of fluorescent intensity after 4 hour incubation with the alamarBlue reagent was obtained prior to siRNA lipofection. 24 hour siRNA lipofection in serum-free media served as the starvation period to synchronize cells in the cell cycle, followed by the application of media with 30% FBS to stimulate proliferation. AlamarBlue assays were performed every two days, followed by the reapplication of fresh media with 30% FBS. For analysis, the fluorescence intensity of each well was determined using an LS-5B Luminescence Spectrometer (PerkinElmer) at excitation and emission wavelengths of 509 and 590 nm, respectively, and was divided by the value obtained at Day 0 to generate a measure of relative proliferation.

[9] = system: HECs; assay: alamarBlue proliferation assay, HECs; assay type: cell-based, human; details: 25 nM
[10] = system: p27^kip1; assay: p27kip1 Western blot after MARCKS knockdown, HVSMCs; assay type: cell-based, human; details: 25 nM, 24 hours post-induction with 30% FBS, GAPDH corrected densitometry
Experimental: (§5) To investigate the differential effects of MARCKS knockdown on the proliferation of vascular cells, Western blots were performed to assess p27^kip1 expression after the induction of proliferation in HVSMCs and HECs. To assess p27^kip1 expression in the setting of MARCKS knockdown, HVSMC and HECs were transfected with 25 nM Control (C) or MARCKS (M) siRNA followed by 48 hour starvation in media with 0.1% FBS to synchronize cells in the Go phase of the cell cycle. Proliferation was then induced by the addition of media with 30% FBS and cells were lysed 24 hours post-induction for protein harvest and Western blot analysis.
as §4, with “Secondary antibodies used were peroxidase-conjugated goat anti-mouse IgG (H+L) (1:1,000-1:5,000 dilution, Chemicon International, Temecula, Calif.) and peroxidase-conjugated rabbit anti-goat IgG (H+L) (1:500 dilution, Bio-Rad). Densitometry was performed using Adobe Photoshop 6.0 or NIH Image J 1.34.” left out

[11] = system: p27^kip1; assay: p27kip1 Western blot after MARCKS knockdown, HECs; assay type: cell-based, human; details: 25 nM, 24 hours post-induction with 30% FBS, GAPDH corrected densitometry
Experimental: as §5
as §4, with “Secondary antibodies used were peroxidase-conjugated goat anti-mouse IgG (H+L) (1:1,000-1:5,000 dilution, Chemicon International, Temecula, Calif.) and peroxidase-conjugated rabbit anti-goat IgG (H+L) (1:500 dilution, Bio-Rad). Densitometry was performed using Adobe Photoshop 6.0 or NIH Image J 1.34.” left out

[12] = system: MARCKS mRNA; assay: Rapid siRNA transfection, MARCKS mRNA knockdown, HVSMCs; assay type: cell-based, human; details: 10 minutes, 2000 cells per well
Experimental: (§6) To more rigorously study the effects of pressure on gene silencing in vascular cells and develop an in vitro model for rapid siRNA transfection, a chamber that could hold standard tissue culture plates and be pressurized with wall air was fabricated. HVSMCs and HECs were seeded in 96-well plates at a density of 6,000 cells/cm^2 and were treated with Control or MARCKS siRNA suspended in normal saline solution, without the addition of a transfection reagent, at concentrations from 1-25 μM in either water, lactate ringers solution (Baxter, Deerfield, Ill.), normal saline (Baxter), cell media, or Plasmalyte A (Baxter) supplemented with 12 mg/ml papaverine hydrochloride and 4 units/ml heparin sodium (LoGerfo, FW et al. (1984) Arch. Surg. 119(10):1212-1214). First, siRNA solutions were applied to one plate of each cell type and rapid siRNA transfection was performed by placing cells in the specially-designed pressure chamber for 10 minutes while raising the ambient pressure by 0-1 ATM using wall air. Cells were then removed from the chamber and the siRNA solution was promptly aspirated and replaced with fresh media prior to returning the plates to the incubator. Parallel plates were subjected the same siRNA treatment and placed in the chamber for 10 minutes without pressurization.
(§7) Evaluation of target gene mRNA knockdown was performed as described in Example 8 above.

[13] = system: MARCKS mRNA; assay: Rapid siRNA transfection, MARCKS mRNA knockdown, HECs; assay type: cell-based, human; details: 10 minutes, 2000 cells per well
Experimental: as §6, §7

[14] = system: VSMCs; details: 100 μM, 24 hours, FBS and TNF-α stimulus
Experimental: To assess cellular migration, a fluorescent migration assay (BD Biosciences, San Jose, Calif.) was utilized. In this assay, VSMC's grown in culture were labeled with 1 μM calcein. Approximately 50,000 cells, suspended in serum free media, were loaded onto a 0.3 cm^2 insert. The surface of the insert is a fluorescently-opaque polyethylene terephthalate (PET) membrane with 8 μm pores that are sufficiently large to permit cells to migrate across its surface. The insert was placed in a tissue culture plate with a chemotactic stimulus, TNF-α, in the lower well, which contained media with 30% FBS and TNF-A at a concentration of 200 Units/ml. Immediately after the inserts were placed into the respective wells, the wells were excited at a wavelength of 485 nm and the fluorescence emission was read at 535 nm. At the order of magnitude of cells that were used, the fluorescence is proportional to cell number in a linear relationship. After 24 hours, the plate was excited a second time and emission at 535 nm was read. Fluorescence was read only from the bottom well, such that only cells that have migrated contribute to the measured fluorescence. The proportion of cells that migrated was determined by dividing the fluorescence of the bottom of the wells at 24 hours by the initial fluorescence from the top of the wells at the time of plating. […]

[15] = system: VSMCs; details: 100 μM, after 5 days of serum stimulation
Experimental: When it is reduced, it emits fluorescence at 590 nm. Therefore, emission at 590 nm was used as a marker for relative cellular proliferation. Cells were incubated in the dark in media containing 10% alamarBlue (BioSource International, Carmilla, Calif.) and 10% FBS for four hours. After incubation, 1 ml of media from the incubated cells was mixed with 1 ml of media containing 10% FBS and the emission at 590 nm was recorded.
A time-zero alamarBlue Assay was performed after a 12-hour period of starvation to assure equal cell loading and synchronization in the cell cycle. The cells were incubated with predetermined concentrations of the PKC inhibitor, 20-28. Cells were incubated in media with 30% FBS for a total of 24 hours. At that point, alamarBlue assays were performed at predetermined intervals. After each assay was completed, the media was replenished with media containing 30% FBS. As in the migration assay, an unstimulated, negative control with standard media was assayed.
To inhibit the effects of MARCKS activity, cells in culture were treated with the protein kinase C inhibitor 20-28 (Calbiochem, La Jolla, Calif.). […] Eichholtz, T. et al. (1993) J. Biol. Chem. 268:1982-1986.

| Substance | effect on proliferation in transfected vein [1] | MARCKS mRNA knockdown [2] | MARCKS mRNA knockdown [3] | MARCKS protein knockdown (Western blot) [4] | MARCKS protein knockdown (Western blot) [5] | cellular migration, % of controls [6] | effect on cellular migration ([7]; 25 nM (FIG. 14B also 10 nM), vs control siRNA) | relative cellular migration ([7]; 25 nM, 5% FBS with 200 ng/ml VEGF) | effect on HVSMC proliferation ([8]; 25 nM (FIG. 15A: 25, 50 and 100 nM), vs control scrambled siRNA) | proliferation, fold increase at day 6 ([8]; HVSMCs, 25 nM, 30% FBS, relative to Day 0) | effect on HEC proliferation ([9]; full MARCKS knockdown) | proliferation, fold increase at day 6 ([9]; HECs, relative to Day 0) | increase in p27^kip1 protein expression relative to controls [10] | increase in p27^kip1 protein expression relative to controls [11] | MARCKS knockdown ([12]; 0 ATM) | MARCKS knockdown ([12]; 0.4 ATM) | MARCKS knockdown ([13]; 0 ATM) | MARCKS knockdown ([13]; 0.4 ATM) | proportion of cells migrated across the membrane [14] | emission at 590 nm (alamarBlue) [15] |
| --- | --- | --- | --- | --- | --- | --- | --- | --- | --- | --- | --- | --- | --- | --- | --- | --- | --- | --- | --- | --- |
| MARCKS siRNA: siRNA, sense 5′-GGU-GCC-CAG-UUC-UCC-AAG-AUU-3′ (SEQ ID NO. 18), anti-sense SEQ ID NO. 19 with 5′ phosphate (sense GGUGCCCAGUUCUCCAAGAUU; antisense UCUUGGAGAACUGGGCACCUU; sense: chemistry not given here; antisense: 5' {P}, sugars by position and backbone not given here) | reduced proliferation | 54±2% | 89±1% | complete knockdown | complete knockdown | 68±7% | no significant effect; also recorded: no significant difference | 1.0±0.7 | near complete arrest | 1.41±0.36 fold | only a minimal effect | 1.90±0.06 fold | 3.2 fold | 1.8 fold | 0±12% | 41±12% | 22±17% | 53±10% |  |  |
| Myristoyl-FARKGALRQ [20-28] |  |  |  |  |  |  |  |  |  |  |  |  |  |  |  |  |  |  | 6.9%±1.5% | 58.0±12.1 |
